Assay results reported in US20260241012A1, “1,8-NAPHTHYRIDIN-2-ONE HETEROBIFUNCTIONAL BCL6 DEGRADERS” (Treeline Biosciences, Inc., priority 2022, published 2026).

Target: T1, N-terminal HiBiT tagged BCL6 (Homo sapiens, UniProt P41182)
T1 construct: expressed in transfected cells; host or cells: HT1080 (ATCC CCL-121), stably transduced with lentivirus pLV-UBC-N-HiBiT-BCL6-PGK-puro
Experiment: HiBiT based degradation assay
Assay type: cell-based
Conditions: HT1080 cells expressing N-terminal HiBiT tagged BCL6, 5 hours of incubation; for Ymin (5 hr): BCL6 degradation normalized with DMSO control; for DC50: four-parameter logistic model, read-out: EC50 (5 hr)
Excerpt: Human BCL6 protein coding open reading frame fused with N-terminal HiBiT coding sequence was synthesized from Integrated DNA Technologies (IDT). Next, the N-HiBiT-BCL6 sequence was cloned into pLV-UBC-PGK-Puro, a lentivirus plasmid purchased from Vectorbuilder, to generate pLV-UBC-N-HiBiT-BCL6-PGK-puro. Lentiviral particles were generated from Lenti-X™ 293T cells (Clontech) by co-transfection of pLV-UBC-N-HiBiT-BCL6-PGK-puro plasmids and lentiviral packaging plasmid mix (Cellecta). HT1080 [HT1080] (ATCC CCL-121) cells were infected with the lentivirus, and HT1080 cells stably integrated with the lentiviral vectors were established by incubation with 1 μg/mL puromycin (Thermofisher).
HT1080 cells expressing N-terminal HiBiT tagged BCL6 were dispensed into a 384-well plate pre-spotted with compounds at varying concentrations. Five thousand cells were seeded into each well in 40 μL of RPMI 1640 media plus 10% Fetal Bovine Serum (10082-147, Thermofisher). After 5 hours of incubation at 37° C. with 5% CO2, 30 μL of the NANO-GLOR HiBiT Lytic Detection System working solution (Promega) was added to each well and incubated at room temperature for 15 min. After incubation, luminescence was read on a PHERAstar FSX Plate Reader (BMG). BCL6 degradation at each indicated concentration was normalized with DMSO control. The BCL6 degradation curves were plotted using a four-parameter logistic model.

Ymin (5 hr)	DC50 [nM]	Compound
++++ (Ymin < 30%)	10 to 100	CNC(=O)COc1cc2cc(Nc3nc(N4CC[C@H](CN5CCN(c6cccc7c(C8CCC(=O)NC8=O)nn(C)c67)CC5)[C@@H](F)C4)ncc3Cl)cnc2n(C(C)C)c1=O (relative stereo) [Compound 238b, 2-((6-((5-chloro-2-((3R,4R)-4-((4-(3-(2,6-dioxopiperidin-3-yl)-1-methyl-1H-indazol-7-yl)piperazin-1-yl)methyl)-3-fluoropiperidin-1-yl)pyrimidin-4-yl)amino)-1-isopropyl-2-oxo-1,2-dihydro-1,8-naphthyridin-3-yl)oxy)-N-methylacetamide]
++++ (Ymin < 30%)	< 10	CNC(=O)COc1cc2cc(Nc3nc(N4CC[C@H](CN5CCC(c6ccc7c(C8CCC(=O)NC8=O)nn(C)c7c6)CC5)[C@H](F)C4)ncc3Cl)cnc2n(C(C)C)c1=O (relative stereo) [Compound 242a, 2-((6-((5-chloro-2-((3S,4R)-4-((4-(3-(2,6-dioxopiperidin-3-yl)-1-methyl-1H-indazol-6-yl)piperidin-1-yl)methyl)-3-fluoropiperidin-1-yl)pyrimidin-4-yl)amino)-1-isopropyl-2-oxo-1,2-dihydro-1,8-naphthyridin-3-yl)oxy)-N-methylacetamide]
++++ (Ymin < 30%)	< 10	CNC(=O)COc1cc2cc(Nc3nc(N4CC[C@@H](CN5CCC(c6ccc7c(C8CCC(=O)NC8=O)nn(C)c7c6)CC5)[C@@H](F)C4)ncc3Cl)cnc2n(C(C)C)c1=O (relative stereo) [Compound 242b, 2-((6-((5-chloro-2-((3R,4S)-4-((4-(3-(2,6-dioxopiperidin-3-yl)-1-methyl-1H-indazol-6-yl)piperidin-1-yl)methyl)-3-fluoropiperidin-1-yl)pyrimidin-4-yl)amino)-1-isopropyl-2-oxo-1,2-dihydro-1,8-naphthyridin-3-yl)oxy)-N-methylacetamide]
++++ (Ymin < 30%)	< 10	CNC(=O)COc1cc2cc(Nc3nc(N4CC5(CC[C@H](Nc6ccc7c(C8CCC(=O)NC8=O)nn(C)c7c6)[C@@H](C)C5)C4)ncc3Cl)cnc2n(C)c1=O (single isomer, unassigned) [Compound 156a]
++++ (Ymin < 30%)	< 10	CNC(=O)COc1cc2cc(Nc3nc(N4CC5(CC[C@@H](Nc6ccc7c(C8CCC(=O)NC8=O)nn(C)c7c6)[C@@H](C)C5)C4)ncc3Cl)cnc2n(C)c1=O (single isomer, unassigned) [Compound 156c]
++++ (Ymin < 30%)	< 10	CNC(=O)COc1cc2cc(Nc3nc(N4CC5(CC[C@H](Oc6ccc7c(C8CCC(=O)NC8=O)nn(C)c7c6)[C@H](C)C5)C4)ncc3Cl)cnc2n(C(C)C)c1=O (single isomer, unassigned) [Compound 185a]
+++ (30% ≤ Ymin < 50%)	10 to 100	CNC(=O)COc1cc2cc(Nc3nc(N4CCC([C@@H](C)N5CCN(c6cccc7c(C8CCC(=O)NC8=O)nn(C)c67)CC5)CC4)ncc3Cl)cnc2n(C(C)C)c1=O (single isomer, unassigned) [Compound 193a]
++++ (Ymin < 30%)	10 to 100	CNC(=O)COc1cc2cc(Nc3nc(N4CCC([C@H](C)N5CCN(c6cccc7c(C8CCC(=O)NC8=O)nn(C)c67)CC5)CC4)ncc3Cl)cnc2n(C(C)C)c1=O (single isomer, unassigned) [Compound 193b]
++++ (Ymin < 30%)	10 to 100	CNC(=O)COc1cc2cc(Nc3nc(N4CCC([C@@](C)(O)C5CCN(c6cccc7c(C8CCC(=O)NC8=O)nn(C)c67)CC5)CC4)ncc3Cl)cnc2n(C(C)C)c1=O (single isomer, unassigned) [Compound 194a]
++++ (Ymin < 30%)	10 to 100	CNC(=O)COc1cc2cc(Nc3nc(N4CCN([C@@H](C)C5CCN(c6cccc7c(C8CCC(=O)NC8=O)nn(C)c67)CC5)CC4)ncc3Cl)cnc2n(C(C)C)c1=O (single isomer, unassigned) [Compound 195a]
+++ (30% ≤ Ymin < 50%)	10 to 100	CNC(=O)COc1cc2cc(Nc3nc(N4CCN([C@H](C)C5CCN(c6cccc7c(C8CCC(=O)NC8=O)nn(C)c67)CC5)CC4)ncc3Cl)cnc2n(C(C)C)c1=O (single isomer, unassigned) [Compound 195b]
++ (50% ≤ Ymin < 70%)	< 10	CNC(=O)COc1cc2cc(Nc3nc(N4CCC([C@@](C)(O)C5CCN(c6ccc7c(C8CCC(=O)NC8=O)nn(C)c7c6)CC5)CC4)ncc3Cl)cnc2n(C(C)C)c1=O (single isomer, unassigned) [Compound 201a]
+++ (30% ≤ Ymin < 50%)	< 10	CNC(=O)COc1cc2cc(Nc3nc(N4CCC([C@](C)(O)C5CCN(c6ccc7c(C8CCC(=O)NC8=O)nn(C)c7c6)CC5)CC4)ncc3Cl)cnc2n(C(C)C)c1=O (single isomer, unassigned) [Compound 201b]
+++ (30% ≤ Ymin < 50%)	10 to 100	CNC(=O)COc1cc2cc(Nc3nc(N4CCC([C@](C)(O)C5CCN(c6cccc7c(C8CCC(=O)NC8=O)nn(C)c67)CC5)CC4)ncc3Cl)cnc2n(C(C)C)c1=O (stereo in doubt) [Compound 194b, rel-2-((6-((5-chloro-2-(4-((1R)-1-(1-(3-(2,6-dioxopiperidin-3-yl)-1-methyl-1H-indazol-7-yl)piperidin-4-yl)-1-hydroxyethyl)piperidin-1-yl)pyrimidin-4-yl)amino)-1-isopropyl-2-oxo-1,2-dihydro-1,8-naphthyridin-3-yl)oxy)-N-methylacetamide]
++++ (Ymin < 30%)	< 10	CNC(=O)COc1cc2cc(Nc3nc(N4CCN(CC5CCN(c6cccc7c(C8CCC(=O)NC8=O)nn(C)c67)CC5)CC4)ncc3Cl)cnc2n(C)c1=O (stereo not shown) [Compound 101, 2-((6-((5-chloro-2-(4-((1-(3-(2,6-dioxopiperidin-3-yl)-1-methyl-1H-indazol-7-yl)piperidin-4-yl)methyl)piperazin-1-yl)pyrimidin-4-yl)amino)-1-methyl-2-oxo-1,2-dihydro-1,8-naphthyridin-3-yl)oxy)-N-methylacetamide]
++++ (Ymin < 30%)	10 to 100	CNC(=O)COc1cc2cc(Nc3nc(N4CCN(CC5CCN(c6cccc7c6C(=O)N(C6CCC(=O)NC6=O)C7=O)CC5)CC4)ncc3Cl)cnc2n(C)c1=O (stereo not shown) [Compound 102, 2-((6-((5-chloro-2-(4-((1-(2-(2,6-dioxopiperidin-3-yl)-1,3-dioxoisoindolin-4-yl)piperidin-4-yl)methyl)piperazin-1-yl)pyrimidin-4-yl)amino)-1-methyl-2-oxo-1,2-dihydro-1,8-naphthyridin-3-yl)oxy)-N-methylacetamide]
++++ (Ymin < 30%)	10 to 100	CNC(=O)COc1cc2cc(Nc3nc(N4CCN(CC5CCN(c6cccc7c(C8CCC(=O)NC8=O)nn(C)c67)CC5)CC4)ncc3Cl)cnc2n(C(C)C)c1=O (stereo not shown) [Compound 103, 2-((6-((5-chloro-2-(4-((1-(3-(2,6-dioxopiperidin-3-yl)-1-methyl-1H-indazol-7-yl)piperidin-4-yl)methyl)piperazin-1-yl)pyrimidin-4-yl)amino)-1-isopropyl-2-oxo-1,2-dihydro-1,8-naphthyridin-3-yl)oxy)-N-methylacetamide]
+++ (30% ≤ Ymin < 50%)	< 10	CNC(=O)COc1cc2cc(Nc3nc(N4CCN(CC5CCN(c6ccc7c(C8CCC(=O)NC8=O)nn(C)c7c6)CC5)CC4)ncc3Cl)cnc2n(C(C)C)c1=O (stereo not shown) [Compound 104, 2-((6-((5-chloro-2-(4-((1-(3-(2,6-dioxopiperidin-3-yl)-1-methyl-1H-indazol-6-yl)piperidin-4-yl)methyl)piperazin-1-yl)pyrimidin-4-yl)amino)-1-isopropyl-2-oxo-1,2-dihydro-1,8-naphthyridin-3-yl)oxy)-N-methylacetamide]
++++ (Ymin < 30%)	10 to 100	CNC(=O)COc1cc2cc(Nc3nc(N4CCN(CC5CCN(c6cccc7c(C8CCC(=O)NC8=O)nn(C)c67)CC5)[C@@H](C)C4)ncc3Cl)cnc2n(C(C)C)c1=O (stereo partly drawn) [Compound 105a, 2-((6-((5-chloro-2-((3S)-4-((1-(3-(2,6-dioxopiperidin-3-yl)-1-methyl-1H-indazol-7-yl)piperidin-4-yl)methyl)-3-methylpiperazin-1-yl)pyrimidin-4-yl)amino)-1-isopropyl-2-oxo-1,2-dihydro-1,8-naphthyridin-3-yl)oxy)-N-methylacetamide]
++ (50% ≤ Ymin < 70%)	< 10	CNC(=O)COc1cc2cc(Nc3nc(N4CCN(CC5CCN(c6ccc7c(C8CCC(=O)NC8=O)nn(C)c7c6)CC5)[C@@H](C)C4)ncc3Cl)cnc2n(C(C)C)c1=O (stereo partly drawn) [Compound 106a, 2-((6-((5-chloro-2-((3S)-4-((1-(3-(2,6-dioxopiperidin-3-yl)-1-methyl-1H-indazol-6-yl)piperidin-4-yl)methyl)-3-methylpiperazin-1-yl)pyrimidin-4-yl)amino)-1-isopropyl-2-oxo-1,2-dihydro-1,8-naphthyridin-3-yl)oxy)-N-methylacetamide]
